# Measured values published in patent US20100113347A1 (priority 2007, published 2010).
# Key:
# [1] = tested on: mice with alloxan diabetes; experiment: Blood glucose level in mice with alloxan diabetes (Example 1); type: in vivo; conditions: exenatide 7.5 mcg/kg
# Protocol: (§1) Diabetes was induced in white mice by a single intraperitoneal administration of alloxan in a dose of 135 mg/kg. […] Control animals received injections of saline solution. By day 31 of the experiment, the levels of blood glucose and cholesterol were measured after an overnight fast. Data are presented as a mean±standard deviation (n=5) of the measured levels of glucose or cholesterol. […] To determine the therapeutic effect of lowering the level of glucose, the following formula was used:
# ΔGlucose=Glucosemedication−Glucosecontrol.
# (§2) Statistical differences of the obtained results were assessed with the use of Student's t-test.
# [2] = tested on: mice with alloxan diabetes; experiment: Blood cholesterol level in mice with alloxan diabetes (Example 1); type: in vivo; conditions: exenatide 7.5 mcg/kg
# Protocol: as §1, with “used: […]” for “used:”
# To determine the therapeutic effect of lowering the level of cholesterol, the following formula was used:
# ΔCholesterol=Cholesterolmedication−Cholesterolcontrol.
# as §2
# [3] = day 31, after overnight fast, s.c. twice daily for 30 days, dalargin 8.8 mcg/kg
# [4] = day 31, after overnight fast, s.c. twice daily for 30 days, dalargin 8.8 mcg/kg, mean±SD, n=5
# [5] = dalargin 8.8 mcg/kg s.c. twice daily for 30 days
substance,measurement,setting,value
tirozil-2-alanil-glycil-phenylalanyl-leucil-arginine [Dalargin],Δ Glucose (Glucose medication − Glucose control),[1]; [3],-0.9 mmol/L
same,Glucose,[1]; [4],10.6 ± 1.3 mmol/L
same,effect on blood glucose levels after an overnight fast (in words),[1]; [5],inefficient
same,Δ Cholesterol (Cholesterol medication − Cholesterol control),[2]; [3],-0.27 mmol/L
same,Cholesterol,[2]; [4],2.34 ± 0.16 mmol/L
same,effect on blood cholesterol after an overnight fast (in words),[2]; [5],inefficient
